# Data reported in the OligoGym collection.
# HELM strings list units from the 5' end as sugar, base in round brackets, then linkage (d deoxyribose, r ribose, m 2'-O-methyl, p phosphodiester). Strings are as the collection lists them, not checked against the first reports. ss, as = sense and antisense strand; [s4r] = 4'-thioribose
# Settings: siRNA
# Also: test system not given here.
row,Substance,target mRNA knockdown [%]
1,RNA1{[s4r](A)p.[s4r](A)p.r(A)p.r(C)p.r(A)p.r(U)p.r(G)p.r(C)p.r(A)p.r(G)p.r(A)p.r(A)p.r(A)p.r(A)p.r(U)p.r(G)p.r(C)p.r(U)p.r(G)p.r(T)p.r(T)}|RNA2{r(C)p.r(A)p.r(G)p.r(C)p.r(A)p.r(U)p.r(U)p.r(U)p.r(U)p.r(C)p.r(U)p.r(G)p.r(C)p.r(A)p.r(U)p.r(G)p.r(U)p.r(U)p.r(U)p.r(T)p.r(T)}$$$RNA1{StrandType:ss}|RNA2{StrandType:as}$,69.5
2,RNA1{[s4r](C)p.[s4r](G)p.[s4r](U)p.[s4r](A)p.[s4r](C)p.[s4r](G)p.[s4r](C)p.[s4r](G)p.[s4r](G)p.[s4r](A)p.[s4r](A)p.[s4r](U)p.[s4r](A)p.[s4r](C)p.[s4r](U)p.[s4r](U)p.[s4r](C)p.[s4r](G)p.[s4r](A)p.r(T)p.r(T)}|RNA2{r(U)p.r(C)p.r(G)p.r(A)p.r(A)p.r(G)p.r(U)p.r(A)p.r(U)p.r(U)p.r(C)p.r(C)p.r(G)p.r(C)p.r(G)p.r(U)p.r(A)p.r(C)p.r(G)p.r(T)p.r(T)}$$$RNA1{StrandType:ss}|RNA2{StrandType:as}$,60.3
3,RNA1{[s4r](C)p.[s4r](G)p.[s4r](U)p.[s4r](A)p.[s4r](C)p.[s4r](G)p.r(C)p.r(G)p.r(G)p.r(A)p.r(A)p.r(U)p.r(A)p.[s4r](C)p.[s4r](U)p.[s4r](U)p.[s4r](C)p.[s4r](G)p.[s4r](A)p.r(T)p.r(T)}|RNA2{[s4r](U)p.[s4r](C)p.[s4r](G)p.[s4r](A)p.[s4r](A)p.[s4r](G)p.r(U)p.r(A)p.r(U)p.r(U)p.r(C)p.r(C)p.r(G)p.[s4r](C)p.[s4r](G)p.[s4r](U)p.[s4r](A)p.[s4r](C)p.[s4r](G)p.r(T)p.r(T)}$$$RNA1{StrandType:ss}|RNA2{StrandType:as}$,0
4,RNA1{[s4r](C)p.[s4r](G)p.[s4r](U)p.[s4r](A)p.[s4r](C)p.[s4r](G)p.r(C)p.r(G)p.r(G)p.r(A)p.r(A)p.r(U)p.r(A)p.[s4r](C)p.[s4r](U)p.[s4r](U)p.[s4r](C)p.[s4r](G)p.[s4r](A)p.r(T)p.r(T)}|RNA2{[s4r](U)p.[s4r](C)p.r(G)p.r(A)p.r(A)p.r(G)p.r(U)p.r(A)p.r(U)p.r(U)p.r(C)p.r(C)p.r(G)p.r(C)p.r(G)p.r(U)p.r(A)p.[s4r](C)p.[s4r](G)p.r(T)p.r(T)}$$$RNA1{StrandType:ss}|RNA2{StrandType:as}$,28.6
5,RNA1{[s4r](C)p.[s4r](G)p.[s4r](U)p.[s4r](A)p.[s4r](C)p.[s4r](G)p.r(C)p.r(G)p.r(G)p.r(A)p.r(A)p.r(U)p.r(A)p.[s4r](C)p.[s4r](U)p.[s4r](U)p.[s4r](C)p.[s4r](G)p.[s4r](A)p.r(T)p.r(T)}|RNA2{r(G)p.r(C)p.r(G)p.r(A)p.r(A)p.r(G)p.r(U)p.r(A)p.r(U)p.r(U)p.r(C)p.r(C)p.r(G)p.r(C)p.r(G)p.r(U)p.r(A)p.[s4r](C)p.[s4r](G)p.r(T)p.r(T)}$$$RNA1{StrandType:ss}|RNA2{StrandType:as}$,74.2
6,RNA1{[s4r](C)p.[s4r](G)p.[s4r](U)p.[s4r](A)p.[s4r](C)p.[s4r](G)p.r(C)p.r(G)p.r(G)p.r(A)p.r(A)p.r(U)p.r(A)p.[s4r](C)p.[s4r](U)p.[s4r](U)p.[s4r](C)p.[s4r](G)p.[s4r](A)p.r(T)p.r(T)}|RNA2{r(U)p.r(C)p.r(G)p.r(A)p.r(A)p.r(G)p.r(U)p.r(A)p.r(U)p.r(U)p.r(C)p.r(C)p.r(G)p.r(C)p.r(G)p.[s4r](U)p.[s4r](A)p.[s4r](C)p.[s4r](G)p.r(T)p.r(T)}$$$RNA1{StrandType:ss}|RNA2{StrandType:as}$,44.4
7,RNA1{[s4r](C)p.[s4r](G)p.[s4r](U)p.[s4r](A)p.[s4r](C)p.[s4r](G)p.r(C)p.r(G)p.r(G)p.r(A)p.r(A)p.r(U)p.r(A)p.[s4r](C)p.[s4r](U)p.[s4r](U)p.[s4r](C)p.[s4r](G)p.[s4r](A)p.r(T)p.r(T)}|RNA2{r(U)p.r(C)p.r(G)p.r(A)p.r(A)p.r(G)p.r(U)p.r(A)p.r(U)p.r(U)p.r(C)p.r(C)p.r(G)p.r(C)p.r(G)p.r(U)p.r(A)p.r(C)p.r(G)p.r(T)p.r(T)}$$$RNA1{StrandType:ss}|RNA2{StrandType:as}$,91.5
